Results published in patent publication US8507756B2, “Plant protection” (Plant Bioscience Limited, priority 2007, dated 2013).

Test system: Myzus persicae
Test: JA or MeJA seed treatment, tomato plants challenged with aphids
Type: in vivo
Conditions: tomato cv. Carousel; seed treatment 3.0 mM MeJA; challenged 10 weeks after seed treatment; 12 days feeding
Description: Tomato, pepper, maize and wheat seeds were treated with 3 mM JA or 1.5 mM JA solutions or with 3 mM methyl jasmonate (MeJA) or with deionised water containing 42.8 mM ethanol (control) by full submersion of up to 40 seeds in a Petri dish of solution wrapped in foil for a period of 24 hours at 4° C. in a fridge. A temperature of 4° C. was used both to prevent degradation of the jasmonic acid solutions and to prevent germination of the seeds. The seeds were then removed from the treatment solution and washed in 1 liter of deionised water for 5 minutes to remove the JA or MeJA coating the outside of the seeds. Tomato seeds were sown in rockwool blocks and grown on peat-based compost in glass houses at 12° C.-28° C. under artificial light on a 16 hour light and 8 hour dark cycle for 48, 56 or 70 days. Tomato plants were then challenged with Tetranychus urticae (two-spotted spider mite) which were allowed to feed for 9 days, Manduca sexta (tobacco hornworm) caterpillars which were allowed to feed for 4 days or Myzus persicae (aphid), which were allowed to feed for 10 or 12 days. In each case these organisms were restricted to the plant on which they had originally been placed. Pepper plants were challenged with Myzus persicae (aphid), which were allowed to feed for 2 weeks. Maize and wheat plants were challenged with Spodoptera […] caterpillars which were allowed to feed for 2 days (maize) or 3 days (wheat). The effect of Myzus persicae on plants was determined by counting the aphid population on each plant under a dissecting microscope at ×10 magnification. Seeds of a UK commercial F1 hybrid tomato variety (cv. Carousel) were treated with 3.0 mM jasmonic acid (JA) and 42.8 mM ethanol in deionised H2O for a period of 24 hours at 4° C. in the dark. […] Aphids were allowed to feed on the plants for twelve days and the aphid population was measured at intervals over this period. […]

`CC/C=C\CC1C(=O)CCC1CC(=O)OC` (stereo not shown) [MeJA, jasmonic acid methyl ester] was tested, and the “Aphid population compared with control plants” value was “significant (p<0.05) reduction”.
